Test results published in patent publication US9671340B2, “Measurement method for determining an organ function” (SMARTDYELIVERY GMBH, priority 2010, dated 2017).
Like-named read-outs stand apart in the source and are kept apart here.

Columns and labels:
[1] = In vivo determination of hepatocellular and canalicular transport by intravital epifluorescence microscopy of the liver; design: species or system WISTAR rats; conditions: periportal and perivenous areas, up to 35 min after application
Experimental: Changes to the hepatocellular uptake and the canalicular elimination were measured 15 h after sepsis or induction of the control group by in vivo imaging of the exclusively hepatocytically eliminated dye indocyanine green (Pulsion, Munich, Germany) and of DY635 using an inverted epiflourescence microscope (AxioObserver® Z1; Zeiss, Jena, Germany), equipped with a computer-controlled, highly-precise scanning platform (Marzhäuser, Wetzlar, Germany).
775 nm to 805 nm excitation and 845 nm to 855 nm emission bandpass filters were used to image the dye indocyanine green. […]
In order to locate 16 regions (regions of interest: ROI) for the in vivo imagings of the dye, the liver surface was rasterised; 8 pericentral and 8 periportal regions were established and the exact position thereof was determined on the computer-controlled scanning stage using AxioVision® software and stored so that the predefined ROI were accessible during future experiments. […]
Before the indocyanine green or DY635 was added, base line images of the defined ROI were recorded using the AxioVision® multi-channel module (×40/0.6 lens, 365 nm to 395 nm excitation and 445 nm to 450 nm emission bandpass filter and 775 nm to 805 nm excitation and 845 nm to 855 nm emission bandpass filter). […]

cultivated hepatocytes = assay: Cytotoxicity, survival of cultivated hepatocytes 24 h after addition of dye (MTT assay); assay type: cell-based
Experimental: FIG. 6: comparison of the cytotoxicity between ICG and DY635. In each case the survival of cultivated hepatocytes 24 h after addition of different concentration of the dyes is shown (MTT assay).

[2] = rat, in vivo
Experimental: (§1) Male WISTAR rats (12-16 weeks old, body mass 400±50 g; Harlan Laboratories, Horst, Netherlands) were used in this study. All tests were carried out in accordance with the German laws for the protection of animals and with the approval of the regional animal protection commission in Bad Langensalza, Thuringia, Germany. The body temperature was kept constant at 37° during the surgical preparation and the experimental tests, in each case using a warming plate and a heatable specimen stage of the microscope. All preparations were carried out under aseptic conditions.
A special model of polymicrobial sepsis with some modifications was used, which was originally described by Bauhofer (Bauhofer et al., 2004, 2006; Lorenz et al., 2004). With this model the sepsis is induced by peritoneal contamination and infection (PCI).
A standardised human stool inoculum was used for the PCI. Immediately after collection, the stool sample was diluted 1:1 with pre-reduced thioglycolate-bouillion, containing 10% sterile barium sulphate and 10% glycerol, and was then homogenised under anaerobic conditions. Lastly, the stool samples were stored at −80° C. until use. Before the inoculation, the stool samples were diluted 1:4 in 0.9% NaCl. The inoculum was analysed microbiologically in order to establish the number of strains after storage. The rats were instrumented 24 h before the PCI and anaesthetised using Desflurane (Baxter, Munich, Germany) via a facemask. A jugular vein catheter (polyethylene, autoclave-sterilised, OD:1.0 mm, Portex, UK) was used for the fluid replacement and was tunneled subcutaneously as far as the approach to the nape of the neck. The catheter was mounted on a hinge-jointed retaining system, which enabled unrestricted movement in the cage after recovery from the anaesthetic.
In introductory studies, the dose of the inoculum was adapted such that a 100% mortality rate was achieved within 40 h. The animals were assigned randomly to the control group (sham) or the PCI group. With short ether anaesthesia, the inoculum was injected intraperitoneally into the pelvis region using a 21 G cannula. The animals in the control group (sham) received 0.9% NaCl in the same amount. After the procedure, both groups received fluid replacement (10 ml/kg/KG/h, Jonosteril®, Fresenius Kabi GmbH, Germany) as well as food and water ad libitum.
The plasma disappearance rate (PDR) and the bile excretion of the dyes DY635 (Dyomics, Jena, Germany) and indocyanine green as a comparative experiment (ICG; Pulsion, Munich, Germany) were determined in vivo.
The animals were anaesthetised 15 h after sepsis or induction of the control group.
An arterial catheter was used for haemodynamic monitoring. A midline and right subcostal laparotomy was performed and the ductus choledochus was provided with a polyethylene catheter (polyethylene, autoclave-sterilised, OD:1.0 mm, Portex, UK) for the collection of bile via a cannula. The wound was then closed using Mersilene 2-0 (Ethicon, Hamburg, Germany) and the anaesthetisation was maintained.
The dye was administered via a jugular vein catheter. The blood samples and bile samples were taken from the zero point and then every 15 min for a period of 60 min. Blood losses caused by these blood samples were adequately counter balanced by infusions. The haemodynamic monitoring was carried out continuously.

[3] = Water solubility of the dye; assay type: physicochemical
[4] = In vivo determination of kidney function, imaging of dye excretion via the kidneys; design: species or system WISTAR rats
Experimental: as §1
Further experiments were carried out to ascertain kidney function using DY652 (data not shown here) and DY647.
The kidney tissue and the widely ramified kidney vascular system can be seen in the recorded images.
FIG. 7: in vivo imaging of the excretion of DY647 via the kidneys.

[5] = at clinically conventional dose; cited from earlier work
[6] = cited from earlier work

CC(C)(C)c1cc(/C=C/C=C2/N(CCCCCC(=O)O)c3ccc(S(=O)(=O)O)cc3C2(C)C)c2cc3c4c(c2[o+]1)CCCN4CCC3 [DY635]
decrease of specific fluorescence intensity (dye concentration) in the organ tissue, compared with ICG [1]: decreases much more sharply | cytotoxicity in comparison with ICG (cultivated hepatocytes): very low cytotoxicity | plasma concentration of the dye immediately after application, septic vs control animals ([2]; male, Wistar): Less DY635 in the plasma was traceable in the healthy animals than in the sick animals | time to complete uptake of the dye into the hepatocytes ([2]; male, Wistar): ≤ 15 min | accumulation of the dye in healthy animals, compared with ICG [2]: accumulates much less considerably in healthy animals than ICG | detection of the dye in the kidneys or in the urine [2]: could not be detected | speed of canalicular excretion into the bile fluid, compared with ICG [2]: excreted more quickly

CCN1/C(=C/C=C/C=C/C2=[N+](CC)c3ccc(S(=O)(=O)O)cc3C2(C)C)C(C)(CCCC(=O)O)c2cc(S(=O)(=O)O)ccc21 (stereo not drawn) [DY647, 2-{(1E,3E)-5-(3-(3-carboxy-propyl)-1-ethyl-3-methyl-5-sulfo-1,3-dihydro-indol-(2E)-ylidene]-penta-1,3-dienyl)-1-ethyl-3,3-dimethyl-5-sulfo-3H-indolium]
solubility in water [3]: water-soluble | location of the dye in the kidneys ([4]; 5 minutes after application): can be seen in the vascular system of the kidneys | location of the dye in the kidneys ([4]; after 90 minutes): has left the vascular system and can be seen in the kidney tubules | detection of the dye in urine after application ([4]; after application): detected in urine | route of excretion ([4]; in vivo measurements of the kidneys): excreted selectively via the kidneys

CC1(C)C(/C=C/C=C/C=C/C=C2\N(CCCCS(=O)(=O)O)c3ccc4ccccc4c3C2(C)C)=[N+](CCCCS(=O)(=O)[O-])c2ccc3ccccc3c21 [ICG, indocyanine green]
toxicity [5]: negligible toxicity | metabolism and extrahepatic elimination ([6]; current state of knowledge): neither metabolised nor eliminated extrahepatically | time until the dye appears unconjugated in the bile ([6]; following intravenous injection (0.1-0.5 mg/kg KG)): approximately 8 min | binding to plasma proteins ([6]; following intravenous injection, within a short period of time): fully bonded to plasma proteins | dye concentration in the bile after 60 minutes [2]: high ICG values could still be measured | plasma concentration of the dye immediately after application, septic vs control animals [2]: Less ICG can be traced in the plasma of the septic animals
